Experiments:
[1] = target: T1, human CD73 (Homo sapiens, UniProt P21589); assay: Inhibition of 5′-Nucleotidase Activity of CD73 (Assay 1); format: biochemical; conditions: human CD73 4 ng/ml, 50 μM CMP, 20 min at RT, malachite green readout; read-out: Assay 1: IC50, inhibition of 5′-nucleotidase activity of CD73
T1 construct: purchased R&D Systems 5795-EN-010
T1 sequence (P21589 27-549): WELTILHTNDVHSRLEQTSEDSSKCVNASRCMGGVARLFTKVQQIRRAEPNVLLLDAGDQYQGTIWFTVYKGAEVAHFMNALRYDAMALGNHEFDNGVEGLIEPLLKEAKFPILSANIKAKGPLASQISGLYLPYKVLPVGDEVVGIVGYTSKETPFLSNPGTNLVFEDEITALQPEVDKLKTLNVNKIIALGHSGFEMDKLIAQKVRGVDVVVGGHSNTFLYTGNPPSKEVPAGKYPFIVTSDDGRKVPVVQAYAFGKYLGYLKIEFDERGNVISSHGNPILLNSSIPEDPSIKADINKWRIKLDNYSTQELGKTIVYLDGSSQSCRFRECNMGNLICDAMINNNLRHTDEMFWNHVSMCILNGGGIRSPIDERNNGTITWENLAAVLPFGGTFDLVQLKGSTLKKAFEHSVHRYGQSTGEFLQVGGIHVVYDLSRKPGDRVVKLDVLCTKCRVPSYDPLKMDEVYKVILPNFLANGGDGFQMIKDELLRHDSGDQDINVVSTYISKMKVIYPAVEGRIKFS
In short: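 Human CD73 (4 ng/ml final) was incubated with 50 μM CMP in 25 mM Tris-HCl pH 7.4, 0.005% Brij-35 for 20 min at RT. Reactions were stopped with malachite green reagent and absorbance was read at 620 nm. IC50 came from a 4-parameter logistic fit.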

[2] = target: T2, CD73 on U138 neuroglioma cells (Homo sapiens, UniProt P21589); assay: Inhibition of Ecto-5′-Nucleotidase Activity in U138 Neuroglioma Cells (Assay 2); format: cell-based; conditions: 50 μM CMP, 2 hr at 37° C., malachite green readout, read-out: Assay 2: IC50, inhibition of ecto-5′-nucleotidase activity in U138 neuroglioma cells
T2 construct: U138 neuroglioma cells, which express CD73 on their surface; endogenous in cells; host or cells: U138 neuroglioma cells (ATCC)
T2 sequence (P21589 27-549): T1 sequence (P21589 27-549)
In short: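 Whole-cell CD73 activity in U138 human neuroglioma cells seeded the day before, washed free of phosphate, then given test compound dilutions with 50 μM CMP in HEPES-buffered saline, pH 7.4, DMSO ≤0.1%. Incubated 2 hr at 37° C; released inorganic phosphate in supernatant measured by malachite green; IC50 by nonlinear regression.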

IC50 [1] | IC50 [2] | Structure (SMILES)
100 to 1000 nM | > 1000 nM | Nc1nc(Cl)nc2c1ncn2[C@@H]1O[C@H](CO[C@H](C(=O)OCc2ccccc2)P(=O)(O)O)[C@@H](O)[C@H]1O [Example 16a, ((S)-1-(((2R,3S,4R,5R)-5-(6-amino-2-chloro-9H-purin-9-yl)-3,4-dihydroxytetrahydrofuran-2-yl)methoxy)-2-(benzyloxy)-2-oxoethyl)phosphonic Acid]
< 100 nM | < 100 nM | CCOC(=O)C(OC[C@H]1C[C@@H](n2nnc3c(NC[C@@H]4CCOC4)nc(Cl)nc32)[C@H](O)[C@@H]1O)P(=O)(O)O (stereo partly drawn) [Example 88, (1-(((1R,2R,3S,4R)-4-(5-chloro-7-((((S)-tetrahydrofuran-3-yl)methyl)amino)-3H-[1,2,3]triazolo[4,5-d]pyrimidin-3-yl)-2,3-dihydroxycyclopentyl)methoxy)-2-ethoxy-2-oxoethyl)phosphonic Acid]
< 100 nM | 100 to 1000 nM | CCOC(=O)[C@H](OC[C@H]1O[C@@H](n2cnc3c(N)nc(Cc4ccccc4)nc32)[C@H](O)[C@@H]1O)P(=O)(O)O (single isomer, unassigned) [Example 39]
< 100 nM | 100 to 1000 nM | CCOC(=O)C(OC[C@H]1C[C@@H](n2nnc3c(N)nc(Br)nc32)[C@H](O)[C@@H]1O)P(=O)(O)O (single isomer, unassigned) [Example 77a]
< 100 nM | < 100 nM | CCOC(=O)C(OC[C@H]1C[C@@H](n2nnc3c(NC4CCCC4)nc(Cl)nc32)[C@H](O)[C@@H]1O)P(=O)(O)O (stereo partly drawn) [Example 92, (1-(((1R,2R,3S,4R)-4-(5-chloro-7-(cyclopentylamino)-3H-[1,2,3]triazolo[4,5-d]pyrimidin-3-yl)-2,3-dihydroxycyclopentyl)methoxy)-2-ethoxy-2-oxoethyl)phosphonic Acid]
< 100 nM | < 100 nM | CCOC(=O)[C@H](OC[C@H]1O[C@@H](n2cnc3c(-n4ccnc4)nc(Cl)nc32)[C@H](O)[C@@H]1O)P(=O)(O)O (single isomer, unassigned) [Example 26]
100 to 1000 nM | > 1000 nM | CCOC(=O)[C@@H](OC[C@H]1O[C@@H](n2cnc3c(C)nc(Cl)nc32)[C@H](O)[C@@H]1O)P(=O)(O)O (single isomer, unassigned) [Example 28a]
100 to 1000 nM | > 1000 nM | CCOC(=O)[C@H](OC[C@H]1C[C@@H](n2cnc3cccc(Br)c3c2=O)[C@H](O)[C@@H]1O)P(=O)(O)O (single isomer, unassigned) [Example 72]
100 to 1000 nM | 100 to 1000 nM | CCOC(=O)[C@@H](OC[C@H]1O[C@@H](n2cnc3c(NC4CC4)nc(Cl)nc32)[C@H](O)[C@@H]1O)P(=O)(O)O (single isomer, unassigned) [Example 22a]
100 to 1000 nM | > 1000 nM | CCOC(=O)[C@H](OC[C@H]1O[C@@H](n2cnc3c(N)nc(-c4cc(F)cc(F)c4)nc32)[C@H](O)[C@@H]1O)P(=O)(O)O (single isomer, unassigned) [Example 41]
100 to 1000 nM | 100 to 1000 nM | CCOC(=O)[C@@H](OC[C@H]1O[C@@H](n2cnc3c(N)nc(C#N)nc32)[C@H](O)[C@@H]1O)P(=O)(O)O (single isomer, unassigned) [Example 45a]
< 100 nM | < 100 nM | CCOC(=O)C(OC[C@H]1C[C@@H](n2nnc3c(NC[C@H]4CCOC4)nc(Cl)nc32)[C@H](O)[C@@H]1O)P(=O)(O)O (stereo partly drawn) [Example 89, (1-(((1R,2R,3S,4R)-4-(5-chloro-7-((((R)-tetrahydrofuran-3-yl)methyl)amino)-3H-[1,2,3]triazolo[4,5-d]pyrimidin-3-yl)-2,3-dihydroxycyclopentyl)methoxy)-2-ethoxy-2-oxoethyl)phosphonic Acid]
100 to 1000 nM | > 1000 nM | Cc1nc(C)c2ncn([C@@H]3O[C@H](COC(C(=O)O)P(=O)(O)O)[C@@H](O)[C@H]3O)c2n1 (stereo partly drawn) [Example 38, 2-(((2R,3S,4R,5R)-5-(2,6-dimethyl-9H-purin-9-yl)-3,4-dihydroxytetrahydrofuran-2-yl)methoxy)-2-phosphonoacetic acid]
< 100 nM | 100 to 1000 nM | CCOC(=O)[C@H](OC[C@H]1O[C@@H](n2cnc3c(N)nc(-c4ccccc4)nc32)[C@H](O)[C@@H]1O)P(=O)(O)O (single isomer, unassigned) [Example 40]
< 100 nM | 100 to 1000 nM | CCOC(=O)C(OC[C@H]1C[C@@H](n2nnc3c(N)nc(Cl)nc32)[C@H](O)[C@@H]1O)P(=O)(O)O (single isomer, unassigned) [Example 77]
100 to 1000 nM | > 1000 nM | CCOC(=O)[C@H](OC[C@H]1O[C@@H](n2cnc3c(N)nc([C@H]4NCCO4)nc32)[C@H](O)[C@@H]1O)P(=O)(O)O (single isomer, unassigned) [Example 51a]

The next lines start with the compound.

Structure (SMILES) | IC50 [1] | IC50 [2]
COc1nc(OC)c2ncn([C@@H]3O[C@H](COC(C(=O)O)P(=O)(O)O)[C@@H](O)[C@H]3O)c2n1 (stereo partly drawn) [Example 33a, 2-(((2R,3S,4R,5R)-5-(2,6-dimethoxy-9H-purin-9-yl)-3,4-dihydroxytetrahydrofuran-2-yl)methoxy)-2-phosphonoacetic acid] | 100 to 1000 nM | > 1000 nM
CC(=O)NNC(=O)C(OC[C@H]1O[C@@H](n2cnc3c(N)nc(Cl)nc32)[C@H](O)[C@@H]1O)P(=O)(O)O (stereo partly drawn) [Example 20, (2-(2-acetylhydrazinyl)-1-(((2R,3S,4R,5R)-5-(6-amino-2-chloro-9H-purin-9-yl)-3,4-dihydroxytetrahydrofuran-2-yl)methoxy)-2-oxoethyl)phosphonic Acid] | < 100 nM | 100 to 1000 nM
CCN(CC)C(=O)[C@@H](OC[C@H]1O[C@@H](n2cnc3c(N)nc(Cl)nc32)[C@H](O)[C@@H]1O)P(=O)(O)O (single isomer, unassigned) [Example 82] | < 100 nM | 100 to 1000 nM
Nc1nc(F)nc2c1ncn2[C@@H]1O[C@H](CO[C@H](C(=O)O)P(=O)(O)O)[C@@H](O)[C@H]1O [Example 53a, (S)-2-(((2R,3S,4R,5R)-5-(6-amino-2-fluoro-9H-purin-9-yl)-3,4-dihydroxytetrahydrofuran-2-yl)methoxy)-2-phosphonoacetic acid] | > 1000 nM | > 1000 nM
CCCS(=O)(=O)[C@H](OC[C@H]1O[C@@H](n2cnc3c(N)nc(Cl)nc32)[C@H](O)[C@@H]1O)P(=O)(O)O (single isomer, unassigned) [Example 12] | < 100 nM | 100 to 1000 nM
O=C(O)C(OC[C@H]1O[C@@H](n2cnc3c(N4CCC(O)CC4)ncnc32)[C@H](O)[C@@H]1O)P(=O)(O)O (stereo partly drawn) [Example 66, 2-(((2R,3S,4R,5R)-3,4-dihydroxy-5-(6-(4-hydroxypiperidin-1-yl)-9H-purin-9-yl)tetrahydrofuran-2-yl)methoxy)-2-phosphonoacetic acid] | 100 to 1000 nM | > 1000 nM
CC(C)(C)OC(=O)[C@H](OC[C@H]1O[C@@H](n2cnc3c(N)nc(C#N)nc32)[C@H](O)[C@@H]1O)P(=O)(O)O [Example 54a, ((R)-1-(((2R,3S,4R,5R)-5-(6-amino-2-cyano-9H-purin-9-yl)-3,4-dihydroxytetrahydrofuran-2-yl)methoxy)-2-(tert-butoxy)-2-oxoethyl)phosphonic Acid] | 100 to 1000 nM | > 1000 nM
CC(C)(C)NC(=O)[C@@H](OC[C@H]1O[C@@H](n2cnc3c(N)nc(Cl)nc32)[C@H](O)[C@@H]1O)P(=O)(O)O (single isomer, unassigned) [Example 19a] | 100 to 1000 nM | 100 to 1000 nM
CNc1nc(Cl)nc2c1ncn2[C@@H]1O[C@H](COC(C(F)(F)F)P(=O)(O)O)[C@@H](O)[C@H]1O (single isomer, unassigned) [Example 100] | 100 to 1000 nM | < 100 nM
CC(C)(C)OC(=O)[C@@H](OC[C@H]1O[C@@H](n2cnc3c(N)nc(C#N)nc32)[C@H](O)[C@@H]1O)P(=O)(O)O (single isomer, unassigned) [Example 54b] | < 100 nM | 100 to 1000 nM
CCOC(=O)C(SC[C@H]1O[C@@H](n2cnc3c(N)nc(Cl)nc32)[C@H](O)[C@@H]1O)P(=O)(O)O (stereo partly drawn) [Example 99, (1-((((2S,3S,4R,5R)-5-(6-amino-2-chloro-9H-purin-9-yl)-3,4-dihydroxytetrahydrofuran-2-yl)methyl)thio)-2-ethoxy-2-oxoethyl)phosphonic Acid] | 100 to 1000 nM | 100 to 1000 nM
CNc1ncnc2c1ncn2[C@@H]1O[C@H](COC(C(=O)O)P(=O)(O)O)[C@@H](O)[C@H]1O (stereo partly drawn) [Example 67, 2-(((2R,3S,4R,5R)-3,4-dihydroxy-5-(6-(methylamino)-9H-purin-9-yl)tetrahydrofuran-2-yl)methoxy)-2-phosphonoacetic acid] | 100 to 1000 nM | > 1000 nM

Reference: patent US10654884B2 (Vitae Pharmaceuticals, Inc., priority 2014, dated 2020)
